Experimental data from US5597798A, “Taxol and epidermal growth factor used to enhance treatment of ovarian cancer” (The Regents of the University of California, priority 1994, dated 1997).
Read-outs that look alike come from different tables or passages of the source.

How the values were obtained:
[1] = tested on: 2008 human ovarian carcinoma cells; assay: Colony forming assay, effect of EGF on sensitivity to cytotoxic agents; assay type: cell-based
[2] = tested on: KB-3-1 cervix cancer cells; assay: Colony forming assay, effect of EGF on cisplatin sensitivity; assay type: cell-based, human
Excerpt: (§1) The following cell lines were used in these studies: 2008 human ovarian carcinoma (Disaia, et al., Am. J. Obstet. Gynecol. 114:978 (1972)), COLO 316 human ovarian carcinoma (Woods et al., Cancer Res. 39:4449 (1979)), a DDP resistant variant 2008/C13*, derived from the parent 2008 cell line (Andrews, et al., Cancer Res. 45:6250 (1985)), A549 non-small cell lung cancer (Lieber et al., Int. J. Cancer 17:62 (1976)), NCI-H520 squamous cell lung cancer (Brower et al., Cancer Res. 46: 798 (1986)), NCI-H596 adenosquamous lung cancer (Banks-Schlegel et al., Cancer Res. 45: 1187 (1985)), UMC 31 small cell lung cancer cells (Graziano et al., Genes, Chromosomes and Cancer 3: 283 (1991)), GLC4 small cell lung cancer cells (Zijlstra et al., Cancer Res. 47: 1780 (1987)), UMCC10b head and neck cancer cells (Krause et al., Arch. Otolayngol. 107: 703 (1981)), 5637 bladder cancer cells (Fogh et al., J. Natl. Cancer Inst. 58: 209 (1977)), MIA PaCa-2 pancreatic cancer cells (Yunis et al., Int. J. Cancer 19:128 (1977)), Du 145 prostate cancer (Mickey Cancer Res. 37: 4049 (1977)) , COLO 205 colon cancer (Semple et al., Cancer Res. 38:1345 (1978)), KB-3-1 cervix cancer (Akiyama et al., Somat. Cell Mol. Genet. 11: 117 (1985)) , MCF-7 breast cancer (Soule et al., J. Natl. Cancer Inst. 51:1409 (1973)), A431 epidermoid carcinoma of the skin (Giard et al., J. Natl. Cancer Inst. 51: 1417 (1973)) and T-289 melanoma cells (Taetle et al., Cancer (Philadelphia) 60: 1836 (1987)). The human cell line 2008 was established from a patient with a serous cystadenocarcinoma of the ovary. The 8-fold DDP resistant cell line 2008/C13* was generated by 13 monthly selections with […], followed by chronic exposure to stepwise increasing concentrations of DDP, from 0.25 to 5 uM. A resistant subline, designated 2008/C13*5, was obtained by monthly selections with 1 μM DDP. The cells were grown on tissue culture dishes in a humidified incubator at 37° C. and 5% CO2 atmosphere. Cells were grown in either of the following types of media: RPMI 1640, RPMI 1640 plus HITES buffer, DMEM low glucose, or DMEM high glucose supplemented with 5% to 10% heat inactivated fetal calf serum and 2 mM glutamine.
(§2) Colony forming assays were used to assess the effect of each drug on the sensitivity of various tumor cell lines to cytotoxic agents (Andrews, et al., Chem.-Biol. Interact 65:51-58 (1988)). For assays performed on plastic tissue culture dishes, five ml of suspended cells were plated on 60-mm polystyrene tissue culture dishes (Corning Glass Works, Corning, N.Y.). Cells were allowed to attach overnight, then 10 μl of stock drug solution was added to triplicate plates at each drug concentration. Control plates received diluent alone. After 1 h, the drug-containing medium was aspirated and replaced with drug free medium. Plates were incubated in humidified 5% CO2 air, and after 14 days plates were fixed with methanol and stained with Giemsa. Colonies of over 60 cells were counted macroscopically.
(§3) The drug containing media was removed and cells were resuspended in 5 ml of complete medium containing 0.36% low melting-temperature agarose at 37° C. The cell suspension was mixed well and then aliquotted at 1 ml per dish in triplicate onto prepared 35 mm dishes containing a basement layer of solidified 1% agarose. The cell-containing layer was allowed to solidify at 4° C. for 10 minutes, and the dishes were incubated at 37° C. in humidified 5% CO2. Colonies greater than 125 um were counted after 5 days.
(§4) ^a Dose response curves were determined by colony forming assay. Cell

[3] = tested on: COLO 205 colon cancer cells; assay: as above; assay type: cell-based, human
Excerpt: as §1, §2, §3, §4

[4] = tested on: UMSCC 10b head and neck cancer cells; assay: as above; assay type: cell-based, human
Excerpt: as §1, §2, §3, §4

[5] = tested on: A549 non-small cell lung cancer cells; assay: as above; assay type: cell-based, human
Excerpt: as §1, §2, §3, §4

[6] = tested on: MCF-7 breast cancer cells; assay: as above; assay type: cell-based, human
Excerpt: as §1, §2, §3, §4

[7] = tested on: MIA PaCa-2 pancreatic cancer cells; assay: as above; assay type: cell-based, human
Excerpt: as §1, §2, §3, §4

[8] = tested on: GLC 4 small cell lung cancer cells; assay: as above; assay type: cell-based, human
Excerpt: as §1, §2, §3, §4

[9] = tested on: Du 145 prostate cancer cells; assay: as above; assay type: cell-based, human
Excerpt: as §1, §2, §3, §4

[10] = tested on: UMC 31 small cell lung cancer cells; assay: as above; assay type: cell-based, human
Excerpt: as §1, §2, §3, §4

[11] = ratio of IC50 in control and EGF-treated cells
[12] = read-out: IC50 in absence of EGF, cisplatin 1 h, no EGF
[13] = read-out: IC50 in presence of EGF, 10 nM EGF and cisplatin concurrently for 1 h

N.N.[Cl][Pt][Cl] [cisplatin]
effect of EGF on sensitivity of 2008 cells to the agent (in words) ([1]; EGF and the cytotoxic agent concurrently for 1 h): significant increase in sensitivity
Dose modifying factor ([1]; Table 3, ratio of IC50 in control and EGF-treated cells): 2.7
IC50 ([1]; read-out: IC50 in absence of EGF, Table 3, cisplatin 1 h, no EGF): 2.45 µM
IC50 ([1]; read-out: IC50 in absence of EGF, cytotoxic agent for 1 h, no EGF): 2.8 µM
IC50 ([1]; read-out: IC50 in presence of EGF, EGF and the cytotoxic agent concurrently for 1 h): 0.9 µM
IC50 ([1]; read-out: IC50 in presence of EGF, Table 3, 10 nM EGF and cisplatin concurrently for 1 h): 0.91 µM
Dose modifying factor [2, 11]: 2.0
IC50 [2, 12]: 9.71 µM
IC50 [2, 13]: 4.79 µM
Dose modifying factor [3, 11]: 1.7
IC50 [3, 12]: 27.6 µM
IC50 [3, 13]: 16.5 µM
Dose modifying factor [4, 11]: 3.8
IC50 [4, 12]: 6.76 µM
IC50 [4, 13]: 1.76 µM
Dose modifying factor [5, 11]: 2.0
IC50 ([5]; read-out: IC50 in absence and presence of EGF (single figure printed), 10 nM EGF and cisplatin concurrently for 1 h): 14.5 µM
Dose modifying factor [6, 11]: 1.0
IC50 [6, 12]: 3.82 µM
IC50 [6, 13]: 3.8 µM
Dose modifying factor [7, 11]: 1.4
IC50 [7, 12]: 7.65 µM
IC50 [7, 13]: 5.53 µM
Dose modifying factor [8, 11]: 0.7
IC50 [8, 12]: 12.2 µM
IC50 [8, 13]: 18.2 µM
Dose modifying factor [9, 11]: 1.5
IC50 [9, 12]: 8.52 µM
IC50 [9, 13]: 5.52 µM
Dose modifying factor [10, 11]: 0.8
IC50 [10, 12]: 5.4 µM
IC50 [10, 13]: 6.86 µM
